pIC50: −log10 of the molar value. Read-outs that look alike come from different tables or passages of the source.
Legend:
[1] = target: VIM-1 (Pseudomonas aeruginosa (strain ATCC 15692 / DSM 22644 / CIP 104116 / JCM 14847 / LMG 12228 / 1C / PRS 101 / PAO1), UniProt A0A0F7KYQ8); experiment: biochemical; details: CCF2-FA substrate, 2 hours at 25° C
Outline: (§1)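 Class B activity is measured in the presence of compound by fluorescence with CCF2-FA after a 2-hour incubation at 25° C. IC50 is taken from a 4-parameter fit of semi-logarithmic dose-response data.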

[2] = test system: P. aeruginosa expressing IMP-1, efflux+ (MB9798); format: cell-based, Pseudomonas aeruginosa; details: for P. aeruginosa expressing IMP-1, efflux+ (MB9798) MITC95: imipenem at 2 μg/mL, in the presence of a class A, C, D serine β-lactamase inhibitor closely related to relebactam; for Efflux ratio: ratio MITC95 PA_9798/MITC95 PA_9799
Text: (§2) The strain background is Pseudomonas aeruginosa PAO1.

[3] = target: IMP-1 (Serratia marcescens, UniProt P52699); experiment: biochemical; format: biochemical
Chain of IMP-1 (P52699 whole entry, looked up, species assumed): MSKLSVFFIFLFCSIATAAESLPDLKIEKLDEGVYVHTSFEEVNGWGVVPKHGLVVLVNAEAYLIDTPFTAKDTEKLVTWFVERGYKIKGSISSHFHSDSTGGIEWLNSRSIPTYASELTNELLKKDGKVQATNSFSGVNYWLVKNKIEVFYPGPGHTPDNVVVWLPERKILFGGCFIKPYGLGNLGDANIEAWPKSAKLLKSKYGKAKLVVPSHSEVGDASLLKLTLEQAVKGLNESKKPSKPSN
Outline: as §1

[4] = target: NDM-1 (Klebsiella pneumoniae, UniProt C7C422); experiment: biochemical; format: biochemical; details: CCF2-FA substrate, 2 hours at 25° C; read-out: NDM-1 IC50
Chain of NDM-1 (C7C422 whole entry, looked up, species assumed): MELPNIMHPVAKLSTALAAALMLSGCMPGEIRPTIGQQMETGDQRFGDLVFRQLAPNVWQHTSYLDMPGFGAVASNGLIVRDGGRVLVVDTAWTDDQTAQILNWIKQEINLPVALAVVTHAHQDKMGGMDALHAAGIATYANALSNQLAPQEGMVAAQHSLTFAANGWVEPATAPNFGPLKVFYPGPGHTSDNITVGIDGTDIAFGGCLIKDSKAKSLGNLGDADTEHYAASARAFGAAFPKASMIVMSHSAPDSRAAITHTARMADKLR
Outline: as §1

[5] = test system: P. aeruginosa expressing IMP-1, efflux− (MB9799); experiment: Efflux: concentration of MBL inhibitor which restores susceptibility to imipenem; format: cell-based, Pseudomonas aeruginosa; details: imipenem at 2 μg/mL, in the presence of a class A, C, D serine β-lactamase inhibitor closely related to relebactam
Text: as §2

[6] = test system: Escherichia coli expressing NDM-1 (CLB30005, CLB30016); format: cell-based; details: with imipenem 1 μg/ml, 95% inhibition of bacterial growth; for Escherichia coli MITC95: NDM-1 (CLB30016)
Outline: (§3)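 Clinical strains grown overnight on blood agar, then diluted 1:100 in 1.1× CAMHB and exposed to test compound with imipenem at 1 μg/ml. Incubation was 22–24 h at 35° C; growth was read by absorbance to find the compound concentration restoring imipenem susceptibility.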

[7] = test system: Serratia marcescens expressing IMP-1 (CL5741); format: cell-based; details: with imipenem 1 μg/ml, 95% inhibition of bacterial growth; for Serratia marcescens MITC95: IMP-1 (CL5741)
Outline: as §3

[8] = test system: Klebsiella pneumoniae expressing VIM-1 (IHMA599644); format: cell-based; details: with imipenem 1 μg/ml, 95% inhibition of bacterial growth; for Klebsiella pneumoniae MITC95: VIM-1 (IHMA599644)
Outline: as §3

[9] = CCF2-FA substrate, 2 hours at 25° C, read-out: IMP-1 IC50

| Compound | pIC50 [1] | P. aeruginosa expressing IMP-1, efflux+ (MB9798) MITC95 [2] [µM] | Efflux ratio [2] | pIC50 [3, 9] | pIC50 [4] | P. aeruginosa expressing IMP-1, efflux− (MB9799) MITC95 [5] [µM] | Escherichia coli expressing NDM-1 (CLB30016) MITC95 [6] [µM] | Serratia marcescens expressing IMP-1 (CL5741) MITC95 [7] [µM] | Klebsiella pneumoniae expressing VIM-1 (IHMA599644) MITC95 [8] [µM] | Escherichia coli MITC95 [6] [µM] | Serratia marcescens MITC95 [7] [µM] | Klebsiella pneumoniae MITC95 [8] [µM] | pIC50 [3] |
| --- | --- | --- | --- | --- | --- | --- | --- | --- | --- | --- | --- | --- | --- |
| NCCS(=O)(=O)c1ccc(-c2cccc3c2nc(N)n3CC(F)(F)F)c(-c2nn[nH]n2)c1S(N)(=O)=O [Example 18, 3-(2-Amino-1-(2,2,2-trifluoroethyl)-1H-benzo[d]imidazol-4-yl)-6-((2-aminoethyl)sulfonyl)-2-(2H-tetrazol-5-yl)benzenesulfonamide] | 9.44 | 3.125 | 2.00 | 9.64 | 9.35 | 1.563 | 1.563 | 3.125 | 3.125 | – | – | – | – |
| NC(=O)N1CCC(S(=O)(=O)c2ccc(-c3cccc4nc(N)[nH]c34)c(-c3nn[nH]n3)c2S(N)(=O)=O)CC1 [Example 49, 4-(4-(2-amino-3H-benzo[d]imidazol-4-yl)-2-sulfamoyl-3-(2H-tetrazol-5-yl)phenylsulfonyl)piperidine-1-carboxamide] | 9.51 | 12.5 | 4.00 | 8.86 | 9.56 | 3.125 | 6.25 | 6.25 | 6.25 | – | – | – | – |
| Cn1nc(N)c2c(-c3ccc(S(=O)(=O)CCN)c(S(N)(=O)=O)c3-c3nnn[nH]3)cccc21 [Example 266, 3-(3-amino-1-methyl-1H-indazol-4-yl)-6-((2-aminoethyl)sulfonyl)-2-(1H-tetrazol-5-yl) benzenesulfonamide] | 9.63 | 6.25 | 2.00 | 9.19 | 9.70 | 3.125 | – | – | – | 6.25 | 3.125 | 6.25 | – |
| Nc1nc2cccc(-c3ccc(SC4CCNCC4)c(S(N)(=O)=O)c3-c3nn[nH]n3)c2[nH]1 [Example 3, 3-(2-amino-3H-benzo[d]imidazol-4-yl)-6-(piperidin-4-ylthio)-2-(2H-tetrazol-5-yl)benzenesulfonamide] | 7.10 | 25 | 9.75 | 6.96 | 8.49 | 2.563 | 0.125 | 6.25 | 25 | – | – | – | – |
| NCCCS(=O)(=O)c1ccc(-c2cccc3[nH]cnc23)c(-c2nn[nH]n2)c1S(N)(=O)=O [Example 354, 6-((3-aminopropyl)sulfonyl)-3-(1H-benzo[d]imidazol-7-yl)-2-(1H-tetrazol-5-yl) benzenesulfonamide] | 9.79 | 0.7813 | 1.00 | 9.56 | 9.65 | 0.7813 | – | – | – | 0.7813 | 0.7813 | 1.563 | – |
| Nc1nc2c(-c3ccc(S(=O)(=O)C4CN(CCO)C4)c(S(N)(=O)=O)c3-c3nn[nH]n3)cccc2[nH]1 [Example 53, 3-(2-amino-1H-benzo[d]imidazol-4-yl)-6-(1-(2-hydroxyethyl)azetidin-3-ylsulfonyl)-2-(2H-tetrazol-5-yl)benzenesulfonamide] | 8.81 | 12.5 | 2.00 | 8.21 | 9.34 | 6.25 | 12.5 | 6.25 | 12.5 | – | – | – | – |
| Nc1nc2c(-c3ccc(S(=O)(=O)[C@H]4CN[C@H](CO)C4)c(S(N)(=O)=O)c3-c3nn[nH]n3)cccc2s1 [Example 292, 3-(2-aminobenzo[d]thiazol-4-yl)-6-((3R,5S)-5-(hydroxymethyl)pyrrolidin-3-ylsulfonyl)-2-(2H-tetrazol-5-yl)benzenesulfonamide] | 9.48 | 1.563 | 1.00 | 9.57 | 9.79 | 1.563 | – | – | – | 3.125 | 1.563 | 3.125 | – |
| Nc1nc2cccc(-c3ccc(S(=O)(=O)C4CNC4)c(S(N)(=O)=O)c3-c3nn[nH]n3)c2o1 [Example 28, 3-(2-aminobenzo[d]oxazol-7-yl)-6-(azetidin-3-ylsulfonyl)-2-(2H-tetrazol-5-yl)benzenesulfonamide] | 9.76 | 6.25 | 4.00 | – | 10.31 | 1.563 | 1.563 | 3.125 | 3.125 | – | – | – | 8.87 |
| NCCS(=O)(=O)c1ccc(-c2ccc(-c3nn[nH]n3)cc2)c(-c2nnn[nH]2)c1S(N)(=O)=O.O=C(O)C(F)(F)F [Example 151, 2-((3-sulfamoyl-2-(1H-tetrazol-5-yl)-4′-(2H-tetrazol-5-yl)-[1,1′-biphenyl]-4-yl)sulfonyl)ethanaminium 2,2,2-trifluoroacetate] | 9.26 | 12.5 | 4.00 | 9.72 | 9.57 | 3.125 | 12.5 | 12.5 | 25 | – | – | – | – |
| Nc1c(NCCO)cccc1-c1ccc(S(=O)(=O)C2CNC2)c(S(N)(=O)=O)c1-c1nn[nH]n1 [Example 374, 2′-Amino-4-(azetidin-3-ylsulfonyl)-3′-((2-hydroxyethyl)amino)-2-(2H-tetrazol-5-yl)-[1,1′-biphenyl]-3-sulfonamide] | 8.59 | 6.25 | 2.00 | 8.57 | 8.85 | 3.125 | – | – | – | 3.125 | 3.125 | 6.25 | – |
| NS(=O)(=O)c1c(S(=O)(=O)C2CNC2)ccc(-c2cccn3cc(C(=O)O)nc23)c1-c1nnn[nH]1 [Example 61, 8-(4-(Azetidin-3-ylsulfonyl)-3-sulfamoyl-2-(1H-tetrazol-5-yl)phenyl)imidazo[1,2-a]pyridine-2-carboxylic Acid] | 9.17 | 12.5 | 1.00 | 8.65 | 9.59 | 12.5 | 12.5 | 6.25 | 25 | – | – | – | – |
| Nc1nc2c(-c3ccc(S(=O)(=O)[C@@H]4CCNC4)c(S(N)(=O)=O)c3-c3nn[nH]n3)cccc2s1 [Example 183, 3-(2-aminobenzo[d]thiazol-4-yl)-6((R)-pyrrolidin-3-ylsulfonyl)-2-(2H-tetrazol-5-yl)benzenesulfonamide] | 9.53 | 0.7813 | 1.00 | 9.80 | 9.91 | 0.7813 | 0.7813 | 1.563 | 1.563 | – | – | – | – |
| NS(=O)(=O)c1c(S(=O)(=O)C2CN(C(=O)NC3CC3)C2)ccc(-c2ccc(NS(=O)(=O)C3CC3)cc2)c1-c1nn[nH]n1 [Example 245, 3-((4′-(Cyclopropanesulfonamido)-3-sulfamoyl-2-(2H-tetrazol-5-yl)-[1,1′-biphenyl]-4-yl)sulfonyl)-N-cyclopropylazetidine-1-carboxamide] | 9.66 | 50 | 8.00 | 9.90 | 9.41 | 6.25 | – | – | – | 25 | 25 | 50 | – |
